Measurements as given in PubChem BioAssay AID248 (DTP/NCI, 2004).
Several values for one entry are separate records, joined by “and”; a condition that tells them apart may be missing. Equal entries are not always repeated. Toxic doses and inconclusive results are not listed. Cut-off read from the data, not from the text of the source: active = T/C of 150% or more; inactive = T/C below 125%.

Test system: L1210 leukemia ip in BDF1 mice, survival T/C
Assay: NCI In Vivo Anticancer Drug Screen. Data for tumor model L1210 Leukemia (intraperitoneal) in B6D2F1 (BDF1) mice
Details: endpoint: mean survival time, higher = longer survival
Procedure, shortened: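 Antitumor effect is assessed in tumor-bearing animals. Survival in the compound arm is compared with a vehicle-dosed control arm and expressed as their quotient.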

[1] = dose: 100.0 mg/kg/injection, schedule: Q04DX003 (ip), vehicle: Klucel (hydroxypropylcellulose) (HPC)
[2] = dose: 200.0 mg/kg/injection, schedule: Q04DX003 (ip), vehicle: Klucel (hydroxypropylcellulose) (HPC)
[3] = dose: 400.0 mg/kg/injection, schedule: Q04DX003 (ip), vehicle: Klucel (hydroxypropylcellulose) (HPC)
[4] = dose: 100.0 mg/kg/injection, schedule: Q01DX001 (ip), vehicle: carboxymethylcellulose (CMC)
[5] = dose: 200.0 mg/kg/injection, schedule: Q01DX001 (ip), vehicle: carboxymethylcellulose (CMC)
[6] = dose: 400.0 mg/kg/injection, schedule: Q01DX001 (ip), vehicle: carboxymethylcellulose (CMC)
[7] = dose: 100.0 mg/kg/injection, schedule: Q01DX009 (ip), vehicle: saline with Tween-80
[8] = dose: 100.0 mg/kg/injection, schedule: Q04DX003 (ip), vehicle: saline with Tween-80
[9] = dose: 200.0 mg/kg/injection, schedule: Q01DX009 (ip), vehicle: saline with Tween-80
[10] = dose: 200.0 mg/kg/injection, schedule: Q04DX003 (ip), vehicle: saline with Tween-80
[11] = dose: 400.0 mg/kg/injection, schedule: Q04DX003 (ip), vehicle: saline with Tween-80
[12] = dose: 100.0 mg/kg/injection, schedule: Q01DX001 (ip), vehicle: Klucel (hydroxypropylcellulose) (HPC)
[13] = dose: 200.0 mg/kg/injection, schedule: Q01DX001 (ip), vehicle: Klucel (hydroxypropylcellulose) (HPC)
[14] = dose: 400.0 mg/kg/injection, schedule: Q01DX001 (ip), vehicle: Klucel (hydroxypropylcellulose) (HPC)
[15] = dose: 100.0 mg/kg/injection, schedule: Q04DX003 (ip), vehicle: saline
[16] = dose: 200.0 mg/kg/injection, schedule: Q04DX003 (ip), vehicle: saline

Measured: T/C

Cc1ccc(NC(=O)Oc2ccc(F)cc2)cc1NC(=O)Oc1ccc(F)cc1
inactive: dose: 25.0 mg/kg/injection, schedule: Q01DX009 (ip), vehicle: other 95 % of control | dose: 50.0 mg/kg/injection, schedule: Q01DX009 (ip), vehicle: other 95 % of control | dose: 100.0 mg/kg/injection, schedule: Q01DX009 (ip), vehicle: other 94 % of control and 100 % of control

COc1ccccc1NC(=S)N1CCC(CCCC2CCN(C(=S)Nc3ccccc3OC)CC2)CC1
inactive: dose: 100.0 mg/kg/injection, schedule: Q01DX009 (ip), vehicle: Klucel (hydroxypropylcellulose) (HPC) 92 % of control | [1] 91 % of control | dose: 200.0 mg/kg/injection, schedule: Q01DX009 (ip), vehicle: Klucel (hydroxypropylcellulose) (HPC) 87 % of control | [2] 89 % of control | [3] 88 % of control

CC(=C(C#N)C#N)c1csc2ccccc12
inactive: [4] 97 % of control | [5] 87 % of control | [6] 92 % of control

Cc1c2ccncc2c(C)c2c1[nH]c1ccc(Cl)cc12
inactive: dose: 37.5 mg/kg/injection, schedule: Q01DX001 (oral), vehicle: saline with Tween-80 102 % of control | dose: 50.0 mg/kg/injection, schedule: Q01DX009 (ip), vehicle: saline with Tween-80 96 % of control | dose: 50.0 mg/kg/injection, schedule: Q04DX003 (ip), vehicle: saline with Tween-80 104 % of control | dose: 75.0 mg/kg/injection, schedule: Q01DX001 (oral), vehicle: saline with Tween-80 103 % of control | [7] 94 % of control | [8] 98 % of control | dose: 150.0 mg/kg/injection, schedule: Q01DX001 (oral), vehicle: saline with Tween-80 97 % of control | dose: 200.0 mg/kg/injection, schedule: Q01DX001 (oral), vehicle: saline with Tween-80 108 % of control | [9] 92 % of control | [10] 90 % of control | dose: 400.0 mg/kg/injection, schedule: Q01DX001 (oral), vehicle: saline with Tween-80 107 % of control | dose: 800.0 mg/kg/injection, schedule: Q01DX001 (oral), vehicle: saline with Tween-80 113 % of control

O=C1c2cc([N+](=O)[O-])ccc2SC2C=CSC12 (stereo unspecified)
inactive: [4] 94 % of control | [5] 108 % of control | [6] 100 % of control

CCOC(=O)C1(C(=O)OCC)CCC(OCC)N1C(=O)c1cc(OC)c(OC)cc1[N+](=O)[O-] (stereo unspecified)
inactive: [1] 105 % of control | [2] 100 % of control | [3] 99 % of control

Cc1c2c(cc3c1[nH]c1ccccc13)C(C(F)(F)F)=NCC2
inactive: dose: 16.0 mg/kg/injection, schedule: Q01DX005 (ip), vehicle: saline 97 % of control | dose: 32.0 mg/kg/injection, schedule: Q01DX005 (ip), vehicle: saline 100 % of control | dose: 64.0 mg/kg/injection, schedule: Q01DX005 (ip), vehicle: saline 100 % of control | dose: 128.0 mg/kg/injection, schedule: Q01DX005 (ip), vehicle: saline 101 % of control

Cc1cccc(CN=C(N)CSS(=O)(=O)O)n1
inactive: dose: 25.0 mg/kg/injection, schedule: Q01DX009 (ip), vehicle: Klucel (hydroxypropylcellulose) (HPC) 104 % of control | dose: 25.0 mg/kg/injection, schedule: Q04DX002 (ip), vehicle: Klucel (hydroxypropylcellulose) (HPC) 92 % of control | dose: 50.0 mg/kg/injection, schedule: Q01DX009 (ip), vehicle: Klucel (hydroxypropylcellulose) (HPC) 96 % of control | dose: 50.0 mg/kg/injection, schedule: Q04DX002 (ip), vehicle: Klucel (hydroxypropylcellulose) (HPC) 103 % of control | dose: 100.0 mg/kg/injection, schedule: Q04DX002 (ip), vehicle: Klucel (hydroxypropylcellulose) (HPC) 101 % of control and 88 % of control

CCN(CC)CC1CO1 (stereo unspecified)
inactive: dose: 7.5 mg/kg/injection, schedule: Q01DX009 (ip), vehicle: saline 102 % of control | dose: 15.0 mg/kg/injection, schedule: Q01DX009 (ip), vehicle: saline 97 % of control

COc1ccc(/C(C)=C\C(=O)O)cc1
inactive: [7] 96 % of control | [8] 107 % of control | [9] 102 % of control | [10] 113 % of control | dose: 400.0 mg/kg/injection, schedule: Q01DX009 (ip), vehicle: saline with Tween-80 101 % of control | [11] 115 % of control

C=C(C)COc1c(CCC)cc(C)cc1NC(C)=O
inactive: [8] 106 % of control | [10] 97 % of control | [11] 104 % of control

CCCCCCCCCCCCCCCCCCCCCCCCCCCCCC
inactive: [1] 93 % of control | [2] 89 % of control | [3] 89 % of control

CC1=C(Br)C(=O)C(c2c(C)c(Br)c(C)c([N+](=O)[O-])c2C)=C(Br)C1=O
inactive: [12] 98 % of control | [1] 102 % of control | [13] 93 % of control | [2] 102 % of control | [14] 106 % of control | [3] 91 % of control

Clc1ccc2c(c1)C([P+](c1ccccc1)(c1ccccc1)c1ccccc1)c1cc(Cl)cc(Cl)c1-2 (stereo unspecified)
inactive: [12] 95 % of control | [1] 102 % of control | [13] 93 % of control | [2] 96 % of control | [14] 95 % of control | [3] 104 % of control

CC1CC([P+](c2ccccc2)(c2ccccc2)c2ccccc2)=NN1 (stereo unspecified)
inactive: dose: 25.0 mg/kg/injection, schedule: Q04DX003 (ip), vehicle: saline 120 % of control | dose: 50.0 mg/kg/injection, schedule: Q04DX003 (ip), vehicle: saline 113 % of control

CC1(C)CC2(OC2c2ccccc2)C(C)(O)c2ccccc21 (stereo unspecified)
inactive: [8] 98 % of control | [10] 104 % of control | [11] 96 % of control

O=C(O)c1ccc(CC2CC3CCC2C3)cc1 (stereo unspecified)
inactive: [8] 93 % of control | [10] 91 % of control | [11] 88 % of control

Oc1ccccc1C=Nc1cnc2ccccc2c1
inactive: [4] 95 % of control | [5] 98 % of control | [6] 95 % of control

CC(CC#N)NCC[P+](c1ccccc1)(c1ccccc1)c1ccccc1 (stereo unspecified)
inactive: [15] 95 % of control | [16] 96 % of control

CCCC(NC(C)=O)C(=O)O (stereo unspecified)
inactive: dose: 100.0 mg/kg/injection, schedule: Q01DX001 (ip), vehicle: saline 94 % of control | dose: 100.0 mg/kg/injection, schedule: Q01DX009 (ip), vehicle: saline 94 % of control and 101 % of control | dose: 100.0 mg/kg/injection, schedule: Q04DX002 (ip), vehicle: saline 98 % of control and 111 % of control and 112 % of control | [15] 98 % of control | dose: 200.0 mg/kg/injection, schedule: Q01DX001 (ip), vehicle: saline 96 % of control | dose: 200.0 mg/kg/injection, schedule: Q01DX009 (ip), vehicle: saline 94 % of control and 90 % of control | dose: 200.0 mg/kg/injection, schedule: Q04DX002 (ip), vehicle: saline 108 % of control and 122 % of control and 123 % of control | [16] 96 % of control | dose: 400.0 mg/kg/injection, schedule: Q01DX001 (ip), vehicle: saline 93 % of control | dose: 400.0 mg/kg/injection, schedule: Q01DX009 (ip), vehicle: saline 99 % of control and 87 % of control | dose: 400.0 mg/kg/injection, schedule: Q04DX002 (ip), vehicle: saline 98 % of control and 111 % of control and 112 % of control | dose: 400.0 mg/kg/injection, schedule: Q04DX003 (ip), vehicle: saline 95 % of control

O=C(Cn1ccccc1=O)c1ccccc1
inactive: [8] 101 % of control | [11] 100 % of control
